Measured values as given in patent publication US5360809A, “Imidazole compounds and their use as calcium channel blockers” (NeuroSearch A/S, priority 1992, dated 1994).

tested on: voltage operated calcium channels (P- and L-type), rat synaptosomes; assay: 45Ca influx into rat synaptosomes under depolarized conditions; type: biochemical, rat (male Wistar); details: depolarization induced 45Ca uptake, rat cortex synaptosomes
Description: A high influx of calcium from extracelluar compartments into neurons is seen after opening of voltage operated calcium channels. Such opening of calcium channels may be induced by depolarization of neuronal membranes. A crude synaptosome preparation contains small vesicles surrounded by neuronal membranes, and it is possible to study an opening of the voltage operated calcium channels in such a preparation. In the below described test influx of ^45 Ca into rat synaptosomes is studied under depolarized conditions. The effect of test substances on the depolarization induced calcium uptake can thus be studied.
The compounds of the present invention which potently block the calcium influx of up to 20 to 40% in this test are believed to be blockers of predominantly the P-type of calcium channels and the compounds of the present invention, which at somewhat higher concentrations block the calcium influx more completely or totally, are believed to be both P- and L-type calcium channel blockers, or predominantly L-type of calcium channel blockers.
The cerebral cortex from a male Wistar rat is homogenized in 20 ml ice cold 0.32M saccharose. In the following steps the temperature is kept at 0° C. to 4° C. The homogenate is centrifuged at 1,000×g for 10 minutes and the supernatant recentrifuged for 20 minutes at 18,000×g. The obtained pellet is resuspended in 0.32M saccharose (10 ml per g of original tissue). Aliquots of 0.05 ml of the hereby obtained synaptosome suspension are added to glass tubes containing 0.625 ml of a NaCl buffer (136 mM NaCl, 4 mM KCl, 0.35 mM CaCl2, 1.2 mM MgCl2, 20 mM Tris HCl, 12 mM glucose, pH 7.4) as well as 0.025 ml of different test substances in 48% ethanol. These tubes are pre-incubatedfor 30 minutes on ice and thereafter for 6 minutes at 37° C. ^45 Ca uptake is initiated by addition to above glass-tubes of 0.4 ml ^45 CACl2 (specific activity: 29-39 Ci/g; […]). […] The radioactivity on the filters are measured by liquid scintillation spectrometry. […]

Row | Compound | IC50 [µM]
1 | Fc1ccc2c(c1)ncn2-c1ccc(I)cc1 [1-(4-iodophenyl)-5-fluoro-benzimidazole] | 7
2 | Nc1cccc(-c2cccc(-n3cnc4cc(C(F)(F)F)ccc43)c2)c1 [1-[3-(3-aminophenyl)-phenyl]-5-trifluoromethyl-benzimidazole] | 14
3 | FC(F)(F)c1ccc2c(c1)ncn2-c1cccc(-c2ccsc2)c1 [1-[3-(3-thienyl)phenyl-5-trifluoromethyl]-benzimidazole] | 3.4
